Patent publication US5859056A, “Pharmaceutical composition for treating cardiovascular diseases containing 3-(2,2,2-trimethylhydrazinium)propionate and γ-butyrobetaine” (priority 1995, dated 1999)
Where two headings read alike, the source gives them in different places.

Tests used:
[1] = test system: hemodynamics of anesthetised cats; assay: effects on hemodynamics of anesthetised cats (Table 1); format: in vivo, cat
Procedure: The experiments were performed on male and female (2.9-3.8 kg) anaesthetized cats (urethane 200 mg/kg and chloralose 50 mg/kg, both i.p.).
The chest was opened in the experimental animals, which were artificially respirated, and blood pressure in the carotid artery as well as general aorta blood flow were measured on physiograph DMP-46 "Narco Bio-Systems" USA.

[2] = test system: isolated rabbit ear blood vessel; assay: adrenaline-induced isolated rabbit ear blood vessel spasms (Table 2); conditions: for Perfusion pressure, final data, max / Perfusion pressure, final data, min: after adrenaline 3.10^-7 M addition
rabbit ear blood vessel = assay: adrenaline-induced rabbit ear blood vessel spasm in the presence of L-nitro-arginine (Table 3); conditions: adrenaline 3.10^-7 M and L-NO2-Arg 10 mg/l
[3] = test system: CaCl2-induced lethal arrhythmias in mice; assay: CaCl2-induced lethal arrhythmias in mice (Table 4); format: in vivo, albino mice; conditions: for Survive (number of animals): 10 observations
Procedure: This experiment was performed on male and female conscious albino mice (19-26 g) administering to their tail vein a 2% (by weight) calcium chloride solution, animal protection against lethal arrhythmia being used as an effect criterion (Table 4).

[4] = test system: CaCl2-induced lethal arrhythmias in rats; assay: CaCl2-induced lethal arrhythmias in rats (Table 5); format: in vivo, albino rats; conditions: for Survive (number of animals) / Survive (percent): 5 observations
Procedure: These experiments were performed on male and female albino rats (190 to 230 g) anesthetized with urethane ([…], i.p.), and after 2% calcium chloride solution administration to animal foot vein ECG was registered in II standard lead.

in vivo = conditions: mouse, in vivo
Procedure: (§1) Acute toxicity was studied on male and female albino mice (19-26 g), 10 animals in a group. The substances were administered as a 10% solution orally or i.v. (with 0.004 ml/sec rate).

albino mice = assay: in vivo; conditions: in words
Procedure: as §1

[5] = test system: ischemia- and reperfusion-induced heart rhythm disturbances in rats; assay: ischemia- and reperfusion-induced heart rhythm disturbances in rats, therapeutic regimen (Table 6); format: in vivo, Wistar rats; conditions: for Lethality (number of animals from total numb) / ST rise during occlusion / Ventricular fibrillation (number of animals from total numb) / Ventricular tachycardy (number of animals from total numb): 50 mg/kg total (25 injection + 25 infusion); for efficacy against ischaemia-reperfusion-induced damage and rhythm disturbances: therapeutic regimen, in words
Procedure: (§2) The experiments were carried out on Wistar rats (260-330 g). During phenobarbital anesthesia (50 mg/kg, i.p.) and artificial respiration their chest was opened and the left coronary artery was ligated with 6.0 Silk Ethicon thread which was pulled out through plastic pipe. Occlusion was made by pressing the plastic pipe to the heart surface, and ischaemia stage was controlled by ECG, fixing ischaemia-induced changes in ECG. Solutions of the substances or saline were i.v. injected in two regimens:
2) therapeutically--1.5 min after occlusion by administering 25 mg/kg in injection and 25 mg/kg infusively. Infusion was stopped 2 min after reperfusion.

[6] = test system: ischemia and reperfusion-induced heart rhythm disturbances in rats; assay: ischemia and reperfusion-induced heart rhythm disturbances in rats, prophylactic regimen (Table 7); format: in vivo, Wistar rats; conditions: for Lethality (number of animals from total numb) / ST rise during occlusion / Ventricular fibrillation (number of animals from total numb) / Ventricular tachycardy (number of animals from total numb): 50 mg/kg (proph.), i.v. 30 min before occlusion; for efficacy against ischaemia-reperfusion-induced damage and rhythm disturbances: prophylactic regimen, in words
Procedure: as §2
1) prophylactically--30 min before occlusion by administration of 50 mg/kg,

[7] = cited from earlier work; for toxic effects: W. Linneweh, 1929
[8] = literature statements; cited from earlier work
carnitine biosynthesis = conditions: cited from earlier work; for mechanism of action: literature

Structure (SMILES): C[N+](C)(C)CCCC(=O)[O-] [GBB, γ-butyrobetaine]
- Blood flow rate changes ([1]; 5.0 mg/kg i.v.): 6%
- Blood flow rate changes ([1]; 10.0 mg/kg i.v.): 12%
- Perfusion pressure, final data, max ([2]; 0.3 μM): 124 mm Hg
- Perfusion pressure, final data, min ([2]; 0.3 μM): 76 mm Hg
- Perfusion pressure, final data, max ([2]; 1.0 μM): 125 mm Hg
- Perfusion pressure, final data, min ([2]; 1.0 μM): 80 mm Hg
- Perfusion pressure, final data, max ([2]; 2.0 μM): 125 mm Hg
- Perfusion pressure, final data, min ([2]; 2.0 μM): 78 mm Hg
- potency on adrenaline-induced vessel spasms relative to 3-(2,2,2-trimethylhydrazinium)propionate ([2]; isolated rabbit ear): 2-3 times
- Perfusion pressure, final data, max (rabbit ear blood vessel; 0.3 μM): 168 mm Hg
- Perfusion pressure, final data, min (rabbit ear blood vessel; 0.3 μM): 105 mm Hg
- Perfusion pressure, final data, max (rabbit ear blood vessel; 1.0 μM): 165 mm Hg
- Perfusion pressure, final data, min (rabbit ear blood vessel; 1.0 μM): 100 mm Hg
- Perfusion pressure, final data, max (rabbit ear blood vessel; 2.0 μM): 163 mm Hg
- Perfusion pressure, final data, min (rabbit ear blood vessel; 2.0 μM): 100 mm Hg
- Protection against the control ([3]; 8 mg/kg p.o.): 10%
- Survive (number of animals) ([3]; 8 mg/kg p.o.): 2
- Protection against the control ([3]; 20 mg/kg p.o.): 0%
- Survive (number of animals) ([3]; 20 mg/kg p.o.): 1
- Protection against the control ([3]; 30 mg/kg p.o.): 20%
- Survive (number of animals) ([3]; 30 mg/kg p.o.): 3
- Protection against the control ([3]; 50 mg/kg p.o.): 40%
- Survive (number of animals) ([3]; 50 mg/kg p.o.): 5
- Protection against the control ([3]; 100 mg/kg p.o.): 30%
- Survive (number of animals) ([3]; 100 mg/kg p.o.): 4
- protection from lethal arrhythmia (cases) ([3]; 50 and 100 mg/kg of γ-butyrobetaine): 30-40%
- Protection against the control ([4]; 10 mg/kg p.o.): 20%
- Survive (number of animals) ([4]; 10 mg/kg p.o.): 1
- Survive (percent) ([4]; 10 mg/kg p.o.): 20%
- Protection against the control ([4]; 30 mg/kg p.o.): 32%
- Survive (number of animals) ([4]; 30 mg/kg p.o.): 1
- Survive (percent) ([4]; 30 mg/kg p.o.): 20%
- LD50 (in vivo; iv): 1860 mg/kg
- LD50 (in vivo; po): > 4500 mg/kg
- acute toxicity (albino mice): practically nontoxic agent
- Lethality (number of animals from total numb) [5]: 1/10
- ST rise during occlusion [5]: 0.23 ± 0.05 mV
- Ventricular fibrillation (number of animals from total numb) [5]: 4/10
- Ventricular tachycardy (number of animals from total numb) [5]: 7/10
- efficacy against ischaemia-reperfusion-induced damage and rhythm disturbances [5]: effectively protects myocardium from ischaemia-reperfusion-induced myocardium damages and ventricular fibrillations which are partially resumed after infusion termination
- Lethality (number of animals from total numb) [6]: 3/8
- ST rise during occlusion [6]: 0.36 mV
- Ventricular fibrillation (number of animals from total numb) [6]: 6/8
- Ventricular tachycardy (number of animals from total numb) [6]: 8/8
- efficacy against ischaemia-reperfusion-induced damage and rhythm disturbances [6]: ineffective
- toxic effects ([7]; listed as γ-Butyrobetaine): accelerates respiration, causes salivation and lacrimation, pupil dilation, vasoconstriction and heart stop in diastole
- toxic effects ([7]; listed as γ-butyrobetaine): heart stop in diastole
- LD50 ([7]; s.c.): > 7000 mg/kg
- pharmacological action [8]: pharmacologically inert substance
- level of carnitine biosynthesis in the organism (carnitine biosynthesis; background statement): increases the level of carnitine biosynthesis in the organism

Structure (SMILES): C[N+](C)(C)NCCC(=O)[O-] [M, 3-(2,2,2-Trimethylhydrazinium)propionate]
- Blood flow rate changes ([1]; 5.0 mg/kg i.v.): +5%
- Blood flow rate changes ([1]; 10.0 mg/kg i.v.): +8%
- Perfusion pressure, final data, max ([2]; 0.3 μM): 125 mm Hg
- Perfusion pressure, final data, min ([2]; 0.3 μM): 80 mm Hg
- Perfusion pressure, final data, max ([2]; 1.0 μM): 123 mm Hg
- Perfusion pressure, final data, min ([2]; 1.0 μM): 77 mm Hg
- Perfusion pressure, final data, max ([2]; 2.0 μM): 126 mm Hg
- Perfusion pressure, final data, min ([2]; 2.0 μM): 80 mm Hg
- Perfusion pressure, final data, max (rabbit ear blood vessel; 0.3 μM): 165 mm Hg
- Perfusion pressure, final data, min (rabbit ear blood vessel; 0.3 μM): 102 mm Hg
- Perfusion pressure, final data, max (rabbit ear blood vessel; 1.0 μM): 163 mm Hg
- Perfusion pressure, final data, min (rabbit ear blood vessel; 1.0 μM): 100 mm Hg
- Perfusion pressure, final data, max (rabbit ear blood vessel; 2.0 μM): 165 mm Hg
- Perfusion pressure, final data, min (rabbit ear blood vessel; 2.0 μM): 100 mm Hg
- Protection against the control ([3]; 8 mg/kg p.o.): 10%
- Survive (number of animals) ([3]; 8 mg/kg p.o.): 2
- Protection against the control ([3]; 20 mg/kg p.o.): 20%
- Survive (number of animals) ([3]; 20 mg/kg p.o.): 3
- Protection against the control ([3]; 30 mg/kg p.o.): 30%
- Survive (number of animals) ([3]; 30 mg/kg p.o.): 4
- Protection against the control ([3]; 50 mg/kg p.o.): 30%
- Survive (number of animals) ([3]; 50 mg/kg p.o.): 4
- Protection against the control ([3]; 100 mg/kg p.o.): 40%
- Survive (number of animals) ([3]; 100 mg/kg p.o.): 5
- Protection against the control ([4]; 10 mg/kg p.o.): 15%
- Survive (number of animals) ([4]; 10 mg/kg p.o.): 1
- Survive (percent) ([4]; 10 mg/kg p.o.): 20%
- Protection against the control ([4]; 20 mg/kg p.o.): 23%
- Survive (number of animals) ([4]; 20 mg/kg p.o.): 1
- Survive (percent) ([4]; 20 mg/kg p.o.): 20%
- Protection against the control ([4]; 30 mg/kg p.o.): 25%
- Survive (number of animals) ([4]; 30 mg/kg p.o.): 1
- Survive (percent) ([4]; 30 mg/kg p.o.): 20%
- Lethality (number of animals from total numb) [5]: 3/10
- ST rise during occlusion [5]: 0.4 ± 0.1 mV
- Ventricular fibrillation (number of animals from total numb) [5]: 8/10
- Ventricular tachycardy (number of animals from total numb) [5]: 10/10
- efficacy against ischaemia-reperfusion-induced damage and rhythm disturbances [5]: relatively low
- Lethality (number of animals from total numb) [6]: 2/8
- ST rise during occlusion [6]: 0.31 mV
- Ventricular fibrillation (number of animals from total numb) [6]: 5/8
- Ventricular tachycardy (number of animals from total numb) [6]: 7/8
- efficacy against ischaemia-reperfusion-induced damage and rhythm disturbances [6]: markedly better in the case of prophylaxis, i.e., 30 min. before occlusion when it protects myocardium from ischemia increase during occlusion
- mechanism of action (carnitine biosynthesis): limitation of carnitine biosynthesis rate and the related long-chain fatty acid Transport limitation through mitochondria membranes
- mechanism of action (carnitine biosynthesis; listed as 3-(2,2,2-trimethylhydrazinium)-propionate (THP)): γ-butyrobetaine hydroxylase inhibitor

Structure (SMILES): CC(=O)OCC[N+](C)(C)C [Ach, acetyl choline]
- Blood pressure changes ([1]; 0.001 mg/kg i.v.): -35%
- Heart rate changes ([1]; 0.001 mg/kg i.v.): -20%

Structure (SMILES): CCOC(=O)Nc1ccc2c(c1)N(C(=O)CCN1CCOCC1)c1ccccc1S2 [Etmozine]
- Protection against the control ([3]; 5 mg/kg p.o.): 20%
- Survive (number of animals) ([3]; 5 mg/kg p.o.): 3
- Protection against the control ([3]; 10 mg/kg p.o.): 40%
- Survive (number of animals) ([3]; 10 mg/kg p.o.): 5
- Protection against the control ([3]; 30 mg/kg p.o.): 40%
- Survive (number of animals) ([3]; 30 mg/kg p.o.): 5
- Protection against the control ([4]; 3 mg/kg p.o.): 20%
- Survive (number of animals) ([4]; 3 mg/kg p.o.): 1
- Survive (percent) ([4]; 3 mg/kg p.o.): 10%
- Protection against the control ([4]; 10 mg/kg p.o.): 46%
- Survive (number of animals) ([4]; 10 mg/kg p.o.): 2
- Survive (percent) ([4]; 10 mg/kg p.o.): 40%

Structure (SMILES): COC(=O)CCC[N+](C)(C)C [methyl ester]
- pharmacological action [8]: possesses cholinergic properties

Structure (SMILES): C=C[C@H]1C[N@@]2CC[C@H]1C[C@@H]2[C@@H](O)c1ccnc2ccc(OC)cc12 [Quinidine]
- Protection against the control ([3]; 10 mg/kg p.o.): 10%
- Survive (number of animals) ([3]; 10 mg/kg p.o.): 2
- Protection against the control ([3]; 30 mg/kg p.o.): 30%
- Survive (number of animals) ([3]; 30 mg/kg p.o.): 4
- Protection against the control ([3]; 50 mg/kg p.o.): 50%
- Survive (number of animals) ([3]; 50 mg/kg p.o.): 6
- Protection against the control ([4]; 3 mg/kg p.o.): 25%
- Survive (number of animals) ([4]; 3 mg/kg p.o.): 1
- Survive (percent) ([4]; 3 mg/kg p.o.): 20%
- Protection against the control ([4]; 10 mg/kg p.o.): 46%
- Survive (number of animals) ([4]; 10 mg/kg p.o.): 2
- Survive (percent) ([4]; 10 mg/kg p.o.): 40%
